Measurements reported in the NIST ThermoML archive (doi:10.1021/acs.jced.7b01034).
Numbers after ± are expanded uncertainties.

How the values were obtained:
[1] = Crystal; DTA
[2] = molar heat capacity at constant pressure; conditions: 100 kPa, Crystal, DSC
[3] = Molar enthalpy of transition or fusion; conditions: Crystal; DSC

O=c1cc(-c2ccccc2)oc2ccc(O)cc12 [6-hydroxyflavone]
Conditions | Molar enthalpy of transition or fusion [kcal/mol] | Normal melting temperature [°C]
[1] | – | 236.2 ± 0.5
[3] | 7.75 ± 0.311 | –

[2]
Conditions | molar heat capacity at constant pressure [J/K/mol]
293.15 K | 244.4 ± 12
298.15 K | 250.3 ± 12
303.15 K | 255.3 ± 13
308.15 K | 260.4 ± 13
313.15 K | 265.7 ± 13
318.15 K | 271.1 ± 14
323.15 K | 277 ± 14
328.15 K | 282.6 ± 14
333.15 K | 287.5 ± 14
338.15 K | 292.7 ± 15
343.15 K | 297.3 ± 15
348.15 K | 302.4 ± 15
353.15 K | 307.1 ± 15
358.15 K | 312.4 ± 16
363.15 K | 317.2 ± 16
368.15 K | 321.9 ± 16
373.15 K | 326.7 ± 16
378.15 K | 330.6 ± 16
383.15 K | 335.1 ± 17
388.15 K | 339.8 ± 17
393.15 K | 344.4 ± 17
398.15 K | 348.9 ± 17
403.15 K | 353.2 ± 18
408.15 K | 358.3 ± 18
413.15 K | 362.3 ± 18
418.15 K | 365.8 ± 18
423.15 K | 370.3 ± 18
428.15 K | 373.7 ± 19
433.15 K | 376.9 ± 19
438.15 K | 380.8 ± 19
443.15 K | 383.5 ± 19
448.15 K | 385.7 ± 19
453.15 K | 388.4 ± 19
458.15 K | 391.5 ± 20
463.15 K | 394.2 ± 20
468.15 K | 397.1 ± 20
473.15 K | 399.2 ± 20
478.15 K | 402 ± 20
483.15 K | 404.1 ± 20
488.15 K | 406.1 ± 20
493.15 K | 408.4 ± 20
498.15 K | 412 ± 21

O=c1cc(-c2ccccc2)oc2cccc(O)c12 [5-hydroxyflavone]
Conditions | Molar enthalpy of transition or fusion [kcal/mol] | Normal melting temperature [°C]
[1] | – | 158 ± 0.5
[3] | 6.49 ± 0.21 | –

[2]
Conditions | molar heat capacity at constant pressure [J/K/mol]
293.15 K | 274.6 ± 14
298.15 K | 279.8 ± 14
303.15 K | 285.1 ± 14
308.15 K | 289.4 ± 14
313.15 K | 297 ± 15
318.15 K | 302.8 ± 15
323.15 K | 307 ± 15
328.15 K | 311.2 ± 16
333.15 K | 312.9 ± 16
338.15 K | 315.9 ± 16
343.15 K | 319.5 ± 16
348.15 K | 323.8 ± 16
353.15 K | 328.8 ± 16
358.15 K | 334.4 ± 17
363.15 K | 338.5 ± 17
368.15 K | 344.8 ± 17
373.15 K | 347.9 ± 17
378.15 K | 350.8 ± 18
383.15 K | 355.6 ± 18
388.15 K | 360.1 ± 18
393.15 K | 365.3 ± 18
398.15 K | 369.6 ± 18
403.15 K | 373.8 ± 19
408.15 K | 377.7 ± 19
413.15 K | 382.3 ± 19
418.15 K | 387.6 ± 19
423.15 K | 395.5 ± 20

Nc1ccc2oc(-c3ccccc3)cc(=O)c2c1 [6-aminoflavone]
Conditions | Molar enthalpy of transition or fusion [kcal/mol] | Normal melting temperature [°C]
[1] | – | 198.8 ± 0.5
[3] | 7.27 ± 0.263 | –

[2]
Conditions | molar heat capacity at constant pressure [J/K/mol]
293.15 K | 272.6 ± 14
298.15 K | 277.9 ± 14
303.15 K | 283.4 ± 14
308.15 K | 287.6 ± 14
313.15 K | 292.2 ± 15
318.15 K | 296.7 ± 15
323.15 K | 301.6 ± 15
328.15 K | 306.3 ± 15
333.15 K | 311.1 ± 16
338.15 K | 316.1 ± 16
343.15 K | 320.4 ± 16
348.15 K | 324.5 ± 16
353.15 K | 328.9 ± 16
358.15 K | 333.6 ± 17
363.15 K | 338.1 ± 17
368.15 K | 342.2 ± 17
373.15 K | 346.1 ± 17
378.15 K | 349.8 ± 18
383.15 K | 353.8 ± 18
388.15 K | 358.5 ± 18
393.15 K | 361.8 ± 18
398.15 K | 367.2 ± 18
403.15 K | 371 ± 19
408.15 K | 374.6 ± 19
413.15 K | 378.3 ± 19
418.15 K | 381.8 ± 19
423.15 K | 385.4 ± 19
428.15 K | 390.1 ± 20
433.15 K | 395.3 ± 20
438.15 K | 400.4 ± 20
443.15 K | 406.4 ± 20
448.15 K | 411.3 ± 21
453.15 K | 418.5 ± 21
458.15 K | 427.8 ± 21

O=c1cc(-c2ccccc2)oc2cc(O)ccc12 [7-hydroxyflavone]
Conditions | Molar enthalpy of transition or fusion [kcal/mol] | Normal melting temperature [°C]
[1] | – | 242.1 ± 1.2
[3] | 7.46 ± 0.287 | –

[2]
Conditions | molar heat capacity at constant pressure [J/K/mol]
293.15 K | 248.1 ± 12
298.15 K | 253.1 ± 13
303.15 K | 259.1 ± 13
308.15 K | 263.4 ± 13
313.15 K | 268.2 ± 13
318.15 K | 272 ± 14
323.15 K | 276.8 ± 14
328.15 K | 282.1 ± 14
333.15 K | 286 ± 14
338.15 K | 291.4 ± 15
343.15 K | 295.3 ± 15
348.15 K | 299.4 ± 15
353.15 K | 303.6 ± 15
358.15 K | 307.6 ± 15
363.15 K | 312.3 ± 16
368.15 K | 316.2 ± 16
373.15 K | 320.7 ± 16
378.15 K | 324.4 ± 16
383.15 K | 328.2 ± 16
388.15 K | 332.4 ± 17
393.15 K | 336 ± 17
398.15 K | 340.1 ± 17
403.15 K | 343.3 ± 17
408.15 K | 347 ± 17
413.15 K | 351.4 ± 18
418.15 K | 355.2 ± 18
423.15 K | 358.2 ± 18
428.15 K | 361.9 ± 18
433.15 K | 366.3 ± 18
438.15 K | 369.6 ± 18
443.15 K | 372.3 ± 19
448.15 K | 376.7 ± 19
453.15 K | 379.5 ± 19
458.15 K | 382.7 ± 19
463.15 K | 385.8 ± 19
468.15 K | 388.5 ± 19
473.15 K | 390.8 ± 20
478.15 K | 391.9 ± 20
483.15 K | 394 ± 20
488.15 K | 398.1 ± 20
493.15 K | 400.9 ± 20
498.15 K | 406.2 ± 20

c1cc2ccc3cccc4ccc(c1)c2c34 [pyrene]
Conditions | Molar enthalpy of transition or fusion [kcal/mol] | Normal melting temperature [°C]
[1] | – | 150.8 ± 0.8
[3] | 4.15 ± 0.155 | –

[2]
Conditions | molar heat capacity at constant pressure [J/K/mol]
293.15 K | 221.9 ± 11
298.15 K | 225.8 ± 11
303.15 K | 230.2 ± 12
308.15 K | 234.3 ± 12
313.15 K | 238.7 ± 12
318.15 K | 243 ± 12
323.15 K | 247.5 ± 12
328.15 K | 252.6 ± 13
333.15 K | 258.1 ± 13
338.15 K | 263.6 ± 13
343.15 K | 268.9 ± 13
348.15 K | 274.1 ± 14
353.15 K | 279.8 ± 14
358.15 K | 285.4 ± 14
363.15 K | 291.4 ± 15
368.15 K | 298.2 ± 15
373.15 K | 304.6 ± 15
378.15 K | 310.7 ± 16
383.15 K | 317.5 ± 16
388.15 K | 325.7 ± 16
393.15 K | 333.7 ± 17
398.15 K | 341.5 ± 17
403.15 K | 349.9 ± 18
408.15 K | 359.2 ± 18
413.15 K | 372.2 ± 19

O=c1c(O)c(-c2ccccc2)oc2ccccc12 [3-hydroxyflavone]
Conditions | Molar enthalpy of transition or fusion [kcal/mol] | Normal melting temperature [°C]
[1] | – | 170.5 ± 0.5
[3] | 7.76 ± 0.287 | –

[2]
Conditions | molar heat capacity at constant pressure [J/K/mol]
293.15 K | 268.9 ± 13
298.15 K | 270.1 ± 14
303.15 K | 272.8 ± 14
308.15 K | 275.3 ± 14
313.15 K | 278.3 ± 14
318.15 K | 280.8 ± 14
323.15 K | 284.2 ± 14
328.15 K | 287.6 ± 14
333.15 K | 291.5 ± 15
338.15 K | 295.2 ± 15
343.15 K | 298.9 ± 15
348.15 K | 303.2 ± 15
353.15 K | 306.8 ± 15
358.15 K | 310.8 ± 16
363.15 K | 315 ± 16
368.15 K | 319.4 ± 16
373.15 K | 323.7 ± 16
378.15 K | 328 ± 16
383.15 K | 332 ± 17
388.15 K | 336.9 ± 17
393.15 K | 341.6 ± 17
398.15 K | 346.8 ± 17
403.15 K | 351.6 ± 18
408.15 K | 356.3 ± 18
413.15 K | 361.2 ± 18
418.15 K | 366 ± 18
423.15 K | 372.3 ± 19
428.15 K | 379 ± 19
433.15 K | 386 ± 19

c1ccc2cc3ccccc3cc2c1 [anthracene]
Conditions | Molar enthalpy of transition or fusion [kcal/mol] | Normal melting temperature [°C]
[1] | – | 216.6 ± 0.6
[3] | 7.33 ± 0.406 | –

[2]
Conditions | molar heat capacity at constant pressure [J/K/mol]
293.15 K | 205.7 ± 10
298.15 K | 209.9 ± 10
303.15 K | 213.9 ± 11
308.15 K | 217.6 ± 11
313.15 K | 221.7 ± 11
318.15 K | 225.4 ± 11
323.15 K | 229.6 ± 12
328.15 K | 234.2 ± 12
333.15 K | 237.9 ± 12
338.15 K | 242.2 ± 12
343.15 K | 246.5 ± 12
348.15 K | 250.7 ± 12
353.15 K | 254.9 ± 13
358.15 K | 258.8 ± 13
363.15 K | 262.9 ± 13
368.15 K | 266.9 ± 13
373.15 K | 270.6 ± 14
378.15 K | 275.2 ± 14
383.15 K | 279.2 ± 14
388.15 K | 283.2 ± 14
393.15 K | 286.9 ± 14
398.15 K | 291.7 ± 15
403.15 K | 295.8 ± 15
408.15 K | 299.3 ± 15
413.15 K | 303.3 ± 15
418.15 K | 306.8 ± 15
423.15 K | 309.9 ± 16
428.15 K | 313.4 ± 16
433.15 K | 317.4 ± 16

O=C(O)c1ccccc1 [benzoic acid]
Conditions | Molar enthalpy of transition or fusion [kcal/mol] | Normal melting temperature [°C]
[1] | – | 122.2 ± 0.5
[3] | 4.44 ± 0.151 | –

[2]
Conditions | molar heat capacity at constant pressure [J/K/mol]
293.15 K | 143.2 ± 7.2
298.15 K | 145.2 ± 7.3
303.15 K | 147.5 ± 7.4
308.15 K | 149.6 ± 7.5
313.15 K | 151.4 ± 7.6
318.15 K | 153 ± 7.7
323.15 K | 155.4 ± 7.8
328.15 K | 157.8 ± 7.9
333.15 K | 160 ± 8
338.15 K | 162.2 ± 8.1
343.15 K | 164.4 ± 8.2
348.15 K | 166.6 ± 8.3
353.15 K | 169.1 ± 8.5
358.15 K | 171.7 ± 8.6
363.15 K | 174.4 ± 8.7
368.15 K | 176.8 ± 8.8
373.15 K | 179.2 ± 9
378.15 K | 182 ± 9.1
383.15 K | 185.4 ± 9.3
388.15 K | 190.1 ± 9.5
